Source: ChEMBL document CHEMBL1201862, “PubChem BioAssay data set” (2004)
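Following 48 hours of exposure in 96-well plates, responses at five concentrations were used to interpolate endpoints linearly. Abbreviation: GI50, concentration required for 50% inhibition of growth.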 The source made the active and inactive calls. Rule as the data show it: active = GI50 up to about 1.1 µM and inactive = higher.

Columns and labels:
Experiment in all cases: NCI-60 cell line screen, 48 h
[1] = system: SR
[2] = system: HCT-15
[3] = system: DMS-273
[4] = system: OVCAR-5
[5] = system: CAKI-1
[6] = system: MOLT-4
[7] = system: NCI-H226
[8] = system: HT-29
[9] = system: SF-268
[10] = system: HOP-62
[11] = system: IGROV-1
[12] = system: HCT-116
[13] = system: OVCAR-8
[14] = system: M14
[15] = system: SN12C
[16] = system: CCRF-CEM
[17] = system: K562
[18] = system: MDA-N
[19] = system: MDA-MB-231
[20] = system: BT-549

Row | SMILES | GI50 [1] | GI50 [2] [µM] | GI50 [3] | GI50 [4] | GI50 [5] | GI50 [6] | GI50 [7] | GI50 [8] | GI50 [9] | GI50 [10] | GI50 [11] | GI50 [12] | GI50 [13] | GI50 [14] | GI50 [15] | GI50 [16] | GI50 [17] | GI50 [18] | GI50 [19] | GI50 [20]
1 | O=C1/C(=C/c2ccccc2)CCCC/C1=C\c1ccccc1 | 12.8 µM (inactive) | 32.9 | 47.1 µM (inactive) | 29 µM (inactive) | > 100 µM (inactive) | 27.7 µM (inactive) | 39.4 µM (inactive) | 16.2 µM (inactive) | 88.9 µM (inactive) | > 100 µM (inactive) | > 100 µM (inactive) | 40.6 µM (inactive) | 75.3 µM (inactive) | > 100 µM (inactive) | > 100 µM (inactive) | – | – | – | – | –
2 | COC(=O)CC1NC(=O)[C@@H]1C(C)O (some centres undefined) | > 100 µM (inactive) | > 100 | > 100 µM (inactive) | – | – | > 100 µM (inactive) | > 100 µM (inactive) | > 100 µM (inactive) | > 100 µM (inactive) | > 100 µM (inactive) | > 100 µM (inactive) | > 100 µM (inactive) | > 100 µM (inactive) | > 100 µM (inactive) | > 100 µM (inactive) | > 100 µM (inactive) | > 100 µM (inactive) | – | – | –
3 | Cc1ccc(N(C(=O)CC(=O)NN)C(=O)c2ccccc2Cl)cc1 | – | > 100 | > 100 µM (inactive) | > 100 µM (inactive) | > 100 µM (inactive) | > 100 µM (inactive) | > 100 µM (inactive) | > 100 µM (inactive) | > 100 µM (inactive) | > 100 µM (inactive) | > 100 µM (inactive) | > 100 µM (inactive) | > 100 µM (inactive) | > 100 µM (inactive) | > 100 µM (inactive) | > 100 µM (inactive) | > 100 µM (inactive) | – | – | –
4 | O=c1[nH]nc(Nc2ccccc2)c2nnn(Cc3ccccc3)c12 | > 100 µM (inactive) | > 100 | – | > 100 µM (inactive) | > 100 µM (inactive) | > 100 µM (inactive) | 20.3 µM (inactive) | > 100 µM (inactive) | > 100 µM (inactive) | 4.52 µM (inactive) | > 100 µM (inactive) | 83.9 µM (inactive) | 19.2 µM (inactive) | > 100 µM (inactive) | > 100 µM (inactive) | > 100 µM (inactive) | > 100 µM (inactive) | > 100 µM (inactive) | 71.3 µM (inactive) | > 100 µM (inactive)
5 | Brc1c2nc3ccccc3nc2n2ccc3ccccc3c12 | > 100 µM (inactive) | > 100 | > 100 µM (inactive) | > 100 µM (inactive) | > 100 µM (inactive) | > 100 µM (inactive) | – | – | > 100 µM (inactive) | > 100 µM (inactive) | 47.6 µM (inactive) | > 100 µM (inactive) | > 100 µM (inactive) | > 100 µM (inactive) | > 100 µM (inactive) | > 100 µM (inactive) | > 100 µM (inactive) | – | – | –
6 | COC1=C(OC)CCC(/C(C#N)=C/c2ccc(OC)c(OC)c2)=C1 | 66.7 µM (inactive) | > 100 | 49.8 µM (inactive) | > 100 µM (inactive) | > 100 µM (inactive) | > 100 µM (inactive) | > 100 µM (inactive) | 80.9 µM (inactive) | 37.2 µM (inactive) | 31.1 µM (inactive) | 56.4 µM (inactive) | > 100 µM (inactive) | > 100 µM (inactive) | > 100 µM (inactive) | > 100 µM (inactive) | > 100 µM (inactive) | 48.3 µM (inactive) | – | – | –
7 | COC(=O)CC(c1ccccc1)C1(c2ccccc2)SCCS1 (centres undefined) | 54.8 µM (inactive) | 94.8 | 104 µM (inactive) | > 290 µM (inactive) | 262 µM (inactive) | 58.1 µM (inactive) | > 290 µM (inactive) | 222 µM (inactive) | 150 µM (inactive) | 266 µM (inactive) | > 290 µM (inactive) | 101 µM (inactive) | 169 µM (inactive) | – | 185 µM (inactive) | 105 µM (inactive) | 133 µM (inactive) | – | – | –
8 | COC(=O)CC(NC(=O)OCc1ccccc1)C(C(C)=O)C(=O)OCc1ccccc1 (centres undefined) | > 100 µM (inactive) | > 31.6 | > 31.6 µM (inactive) | > 100 µM (inactive) | > 31.6 µM (inactive) | > 31.6 µM (inactive) | > 10 µM (inactive) | > 10 µM (inactive) | > 31.6 µM (inactive) | > 10 µM (inactive) | > 31.6 µM (inactive) | > 31.6 µM (inactive) | > 31.6 µM (inactive) | > 31.6 µM (inactive) | > 31.6 µM (inactive) | > 31.6 µM (inactive) | > 31.6 µM (inactive) | – | – | –
9 | O=C1CCCCCCCCCCC(=O)C2CCOCCOCCOCCC1Cc1cccc(n1)C2 | – | 83.2 | 54.5 µM (inactive) | – | 41.2 µM (inactive) | 31.6 µM (inactive) | 60 µM (inactive) | > 100 µM (inactive) | 94.4 µM (inactive) | > 100 µM (inactive) | 90.4 µM (inactive) | 88.7 µM (inactive) | 59.3 µM (inactive) | 67.6 µM (inactive) | 64.9 µM (inactive) | 59.2 µM (inactive) | 50.1 µM (inactive) | – | – | –
10 | O=C1C(=O)N(c2cc(Cl)ccc2Cl)C(=O)C(=O)C1c1nc2ccccc2s1 | – | > 100 | > 100 µM (inactive) | > 100 µM (inactive) | > 100 µM (inactive) | – | 34.4 µM (inactive) | > 100 µM (inactive) | 86.5 µM (inactive) | > 100 µM (inactive) | > 100 µM (inactive) | 66.5 µM (inactive) | > 100 µM (inactive) | > 100 µM (inactive) | > 100 µM (inactive) | 62.4 µM (inactive) | 93.1 µM (inactive) | – | – | –
11 | CCCCN/C(=N\C#N)N(Cc1ccccc1)Cc1ccccc1 | – | 16.3 | 16.1 µM (inactive) | 23.5 µM (inactive) | 29.1 µM (inactive) | 17.5 µM (inactive) | 41.7 µM (inactive) | 14.7 µM (inactive) | 38.1 µM (inactive) | 26.6 µM (inactive) | 22.2 µM (inactive) | 20.8 µM (inactive) | 37 µM (inactive) | 20.1 µM (inactive) | 27.7 µM (inactive) | 16.7 µM (inactive) | 16.6 µM (inactive) | – | – | –
12 | CN(C)C(=S)/N=c1\ss/c(=N\C(=S)N(C)C)n1-c1ccc2c(c1)OCO2 | > 100 µM (inactive) | > 100 | > 100 µM (inactive) | > 100 µM (inactive) | > 100 µM (inactive) | – | > 100 µM (inactive) | – | > 100 µM (inactive) | > 100 µM (inactive) | 10 µM (inactive) | > 100 µM (inactive) | > 100 µM (inactive) | > 100 µM (inactive) | > 100 µM (inactive) | – | 4.86 µM (inactive) | – | – | –
13 | O=C(CN1CCN(c2ccccn2)CC1)N1CCCn2c1nc1ccccc1c2=O | > 100 µM (inactive) | > 100 | – | > 100 µM (inactive) | > 100 µM (inactive) | > 100 µM (inactive) | > 100 µM (inactive) | > 100 µM (inactive) | > 100 µM (inactive) | > 100 µM (inactive) | > 100 µM (inactive) | > 100 µM (inactive) | > 100 µM (inactive) | > 100 µM (inactive) | > 100 µM (inactive) | > 100 µM (inactive) | > 100 µM (inactive) | > 100 µM (inactive) | > 100 µM (inactive) | > 100 µM (inactive)
14 | CN(C)CCCOc1ccc(/C=C2/CCC/C(=C/c3ccc(OCCCN(C)C)cc3)C2=O)cc1 | – | 0.995 | 1.45 µM (inactive) | 0.239 µM (active) | – | 0.877 µM (active) | – | 0.442 µM (active) | 2 µM (inactive) | 1.82 µM (inactive) | 2.72 µM (inactive) | 1.37 µM (inactive) | 3.08 µM (inactive) | 2.11 µM (inactive) | 1.39 µM (inactive) | 0.824 µM (active) | 0.299 µM (active) | – | – | –
15 | CCCc1c(OC)c(=O)c2c(O)cc(OC)c3c4c(OC)cc(O)c5c(=O)c(OC)c(CCC)c(c1c23)c54 | 0.31 µM (active) | 2.9 | – | 10.4 µM (inactive) | 4.17 µM (inactive) | 1.6 µM (inactive) | 3.46 µM (inactive) | 4.79 µM (inactive) | 5 µM (inactive) | 6.47 µM (inactive) | 2.98 µM (inactive) | 2.63 µM (inactive) | 0.944 µM (active) | 2.05 µM (inactive) | 3.15 µM (inactive) | 1.26 µM (inactive) | 2.33 µM (inactive) | 4.05 µM (inactive) | 2.46 µM (inactive) | 2.74 µM (inactive)
16 | CC1(C)OC(=O)C(c2cccs2)C(=O)O1 | > 100 µM (inactive) | > 100 | > 100 µM (inactive) | > 100 µM (inactive) | > 100 µM (inactive) | > 100 µM (inactive) | > 100 µM (inactive) | > 100 µM (inactive) | > 100 µM (inactive) | > 100 µM (inactive) | – | > 100 µM (inactive) | > 100 µM (inactive) | > 100 µM (inactive) | > 100 µM (inactive) | > 100 µM (inactive) | > 100 µM (inactive) | – | – | –
17 | COC1[C@@H](OC(C)=O)[C@@H](NC(=O)C(Cl)(Cl)Cl)C(I)[C@@H](N2C(=O)c3ccccc3C2=O)[C@H]1OC (some centres undefined) | > 100 µM (inactive) | > 100 | > 100 µM (inactive) | > 100 µM (inactive) | – | > 100 µM (inactive) | > 100 µM (inactive) | > 100 µM (inactive) | > 100 µM (inactive) | > 100 µM (inactive) | > 100 µM (inactive) | > 100 µM (inactive) | > 100 µM (inactive) | > 100 µM (inactive) | > 100 µM (inactive) | > 100 µM (inactive) | > 100 µM (inactive) | – | – | –
